Measured values taken from ChEMBL document CHEMBL5442219.

Key:
Details in all cases: Compound concentration 10 µM
[1] = target: T1, Alpha-2A adrenergic receptor (Homo sapiens) (UniProt P08913)
T1 sequence (whole entry): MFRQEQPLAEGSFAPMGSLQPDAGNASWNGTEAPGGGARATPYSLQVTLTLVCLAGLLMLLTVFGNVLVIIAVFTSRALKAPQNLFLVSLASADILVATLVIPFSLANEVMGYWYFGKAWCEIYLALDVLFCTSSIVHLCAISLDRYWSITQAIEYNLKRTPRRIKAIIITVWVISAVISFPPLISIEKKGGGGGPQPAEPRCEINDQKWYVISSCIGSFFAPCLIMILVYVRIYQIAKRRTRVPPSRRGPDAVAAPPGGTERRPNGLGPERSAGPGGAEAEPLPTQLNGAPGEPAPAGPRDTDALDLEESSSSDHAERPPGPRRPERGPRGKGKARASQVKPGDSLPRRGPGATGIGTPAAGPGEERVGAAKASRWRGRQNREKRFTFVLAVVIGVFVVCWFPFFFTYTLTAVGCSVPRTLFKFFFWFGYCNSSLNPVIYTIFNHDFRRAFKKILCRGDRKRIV
Description: PDSP Primary Binding target: ADRA2A - Compounds are tested at 10 uM concentration, plate are incubated at room temperature in the dark for 90 minutes. Reaction are stopped by vacuum filtration onto 0.3% polyethyleneimine soaked filter mats using Filtermate harvester. Scintilation cocktail is then melted onto microwave-dried filters on a hot plate and the radio activity is counted in Microbia counter.

[2] = target: D(1A) dopamine receptor (Homo sapiens) (UniProt P21728)
D(1A) dopamine receptor (Homo sapiens), sequence (P21728 whole entry): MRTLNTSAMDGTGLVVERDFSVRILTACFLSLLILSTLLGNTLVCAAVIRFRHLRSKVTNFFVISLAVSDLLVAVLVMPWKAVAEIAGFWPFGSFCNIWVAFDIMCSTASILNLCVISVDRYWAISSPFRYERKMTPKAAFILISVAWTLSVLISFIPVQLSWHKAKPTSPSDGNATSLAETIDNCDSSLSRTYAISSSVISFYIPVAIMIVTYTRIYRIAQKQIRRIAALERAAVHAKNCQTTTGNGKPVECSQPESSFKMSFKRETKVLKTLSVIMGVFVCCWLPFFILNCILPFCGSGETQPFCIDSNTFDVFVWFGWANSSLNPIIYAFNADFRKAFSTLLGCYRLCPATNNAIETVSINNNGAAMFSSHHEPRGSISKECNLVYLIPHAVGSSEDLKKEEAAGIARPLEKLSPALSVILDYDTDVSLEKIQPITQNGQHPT
Description: PDSP Primary Binding target: DRD1 - Compounds are tested at 10 uM concentration, plate are incubated at room temperature in the dark for 90 minutes. Reaction are stopped by vacuum filtration onto 0.3% polyethyleneimine soaked filter mats using Filtermate harvester. Scintilation cocktail is then melted onto microwave-dried filters on a hot plate and the radio activity is counted in Microbia counter.

[3] = target: Sodium-dependent noradrenaline transporter (Homo sapiens) (UniProt P23975)
Sodium-dependent noradrenaline transporter (Homo sapiens), sequence (P23975 whole entry): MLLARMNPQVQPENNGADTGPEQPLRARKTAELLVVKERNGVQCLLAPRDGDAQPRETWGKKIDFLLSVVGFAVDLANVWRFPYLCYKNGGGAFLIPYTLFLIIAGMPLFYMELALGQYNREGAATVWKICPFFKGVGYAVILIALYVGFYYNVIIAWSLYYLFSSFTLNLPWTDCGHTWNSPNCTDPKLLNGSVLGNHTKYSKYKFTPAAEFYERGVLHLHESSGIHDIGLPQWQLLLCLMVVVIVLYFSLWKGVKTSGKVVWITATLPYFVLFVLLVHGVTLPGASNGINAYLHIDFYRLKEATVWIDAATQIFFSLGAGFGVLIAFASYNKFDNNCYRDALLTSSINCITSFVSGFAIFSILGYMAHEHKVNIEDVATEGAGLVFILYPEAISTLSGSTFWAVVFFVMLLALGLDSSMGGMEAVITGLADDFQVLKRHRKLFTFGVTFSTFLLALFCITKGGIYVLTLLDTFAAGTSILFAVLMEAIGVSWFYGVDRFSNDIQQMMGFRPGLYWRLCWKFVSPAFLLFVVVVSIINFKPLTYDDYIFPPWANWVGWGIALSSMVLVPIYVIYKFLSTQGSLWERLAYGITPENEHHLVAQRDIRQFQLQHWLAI
Description: PDSP Primary Binding target: SLC6A2 - Compounds are tested at 10 uM concentration, plate are incubated at room temperature in the dark for 90 minutes. Reaction are stopped by vacuum filtration onto 0.3% polyethyleneimine soaked filter mats using Filtermate harvester. Scintilation cocktail is then melted onto microwave-dried filters on a hot plate and the radio activity is counted in Microbia counter.

[4] = target: Histamine H2 receptor (Homo sapiens) (UniProt P25021)
Histamine H2 receptor (Homo sapiens), sequence (P25021 whole entry): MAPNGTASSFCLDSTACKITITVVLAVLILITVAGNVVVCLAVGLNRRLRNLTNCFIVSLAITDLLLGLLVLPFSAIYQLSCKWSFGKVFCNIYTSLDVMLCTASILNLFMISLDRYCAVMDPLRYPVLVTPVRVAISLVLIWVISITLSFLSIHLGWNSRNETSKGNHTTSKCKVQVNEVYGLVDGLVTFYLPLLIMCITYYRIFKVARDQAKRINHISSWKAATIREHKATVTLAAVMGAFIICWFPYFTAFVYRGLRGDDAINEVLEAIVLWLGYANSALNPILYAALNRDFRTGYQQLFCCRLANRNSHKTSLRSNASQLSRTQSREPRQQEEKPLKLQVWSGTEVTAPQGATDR
Description: PDSP Primary Binding target: HRH2 - Compounds are tested at 10 uM concentration, plate are incubated at room temperature in the dark for 90 minutes. Reaction are stopped by vacuum filtration onto 0.3% polyethyleneimine soaked filter mats using Filtermate harvester. Scintilation cocktail is then melted onto microwave-dried filters on a hot plate and the radio activity is counted in Microbia counter.

[5] = target: Sigma non-opioid intracellular receptor 1 (Homo sapiens) (UniProt Q99720)
Sigma non-opioid intracellular receptor 1 (Homo sapiens), sequence (Q99720 whole entry): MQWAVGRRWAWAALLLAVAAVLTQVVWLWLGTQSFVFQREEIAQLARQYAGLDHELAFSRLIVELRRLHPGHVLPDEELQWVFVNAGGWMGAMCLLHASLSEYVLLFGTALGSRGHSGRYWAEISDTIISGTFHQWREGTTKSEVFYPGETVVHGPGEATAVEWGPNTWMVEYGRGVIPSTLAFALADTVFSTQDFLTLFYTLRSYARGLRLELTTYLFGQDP
Description: PDSP Primary Binding target: SIGMAR1 - Compounds are tested at 10 uM concentration, plate are incubated at room temperature in the dark for 90 minutes. Reaction are stopped by vacuum filtration onto 0.3% polyethyleneimine soaked filter mats using Filtermate harvester. Scintilation cocktail is then melted onto microwave-dried filters on a hot plate and the radio activity is counted in Microbia counter.

[6] = target: Histamine H1 receptor (Homo sapiens) (UniProt P35367)
Histamine H1 receptor (Homo sapiens), sequence (P35367 whole entry): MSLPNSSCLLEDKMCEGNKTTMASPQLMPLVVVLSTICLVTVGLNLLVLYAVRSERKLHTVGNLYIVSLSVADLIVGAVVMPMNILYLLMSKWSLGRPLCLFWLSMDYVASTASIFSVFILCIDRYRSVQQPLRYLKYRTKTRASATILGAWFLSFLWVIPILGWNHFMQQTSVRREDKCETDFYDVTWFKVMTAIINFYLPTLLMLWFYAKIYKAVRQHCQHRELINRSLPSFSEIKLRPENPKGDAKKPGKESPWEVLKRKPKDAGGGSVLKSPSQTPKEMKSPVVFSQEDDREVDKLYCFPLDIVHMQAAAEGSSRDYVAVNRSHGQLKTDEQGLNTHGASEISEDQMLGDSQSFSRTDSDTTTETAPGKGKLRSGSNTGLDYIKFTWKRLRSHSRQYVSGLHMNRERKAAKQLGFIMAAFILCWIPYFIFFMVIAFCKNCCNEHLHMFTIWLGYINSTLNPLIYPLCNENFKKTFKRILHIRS
Description: PDSP Primary Binding target: HRH1 - Compounds are tested at 10 uM concentration, plate are incubated at room temperature in the dark for 90 minutes. Reaction are stopped by vacuum filtration onto 0.3% polyethyleneimine soaked filter mats using Filtermate harvester. Scintilation cocktail is then melted onto microwave-dried filters on a hot plate and the radio activity is counted in Microbia counter.

[7] = target: T2, Alpha-1B adrenergic receptor (Homo sapiens) (UniProt P35368)
T2 sequence (whole entry): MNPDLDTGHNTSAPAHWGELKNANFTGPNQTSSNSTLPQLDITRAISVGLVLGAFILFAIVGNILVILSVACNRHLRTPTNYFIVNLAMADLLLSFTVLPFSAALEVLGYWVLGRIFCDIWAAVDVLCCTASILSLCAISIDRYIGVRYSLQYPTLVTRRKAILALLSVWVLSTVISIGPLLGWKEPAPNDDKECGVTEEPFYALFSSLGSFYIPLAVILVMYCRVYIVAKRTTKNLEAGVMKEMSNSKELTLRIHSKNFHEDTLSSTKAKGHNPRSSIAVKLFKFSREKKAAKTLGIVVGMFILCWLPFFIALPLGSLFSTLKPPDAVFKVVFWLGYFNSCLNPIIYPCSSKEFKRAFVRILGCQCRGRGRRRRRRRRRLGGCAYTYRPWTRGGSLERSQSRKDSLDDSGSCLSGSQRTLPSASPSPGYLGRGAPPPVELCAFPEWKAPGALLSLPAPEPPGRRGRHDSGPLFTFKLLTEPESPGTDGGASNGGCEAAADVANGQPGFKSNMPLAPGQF
Description: PDSP Primary Binding target: ADRA1B - Compounds are tested at 10 uM concentration, plate are incubated at room temperature in the dark for 90 minutes. Reaction are stopped by vacuum filtration onto 0.3% polyethyleneimine soaked filter mats using Filtermate harvester. Scintilation cocktail is then melted onto microwave-dried filters on a hot plate and the radio activity is counted in Microbia counter.

[8] = target: D(2) dopamine receptor (Homo sapiens) (UniProt P14416)
D(2) dopamine receptor (Homo sapiens), sequence (P14416 whole entry): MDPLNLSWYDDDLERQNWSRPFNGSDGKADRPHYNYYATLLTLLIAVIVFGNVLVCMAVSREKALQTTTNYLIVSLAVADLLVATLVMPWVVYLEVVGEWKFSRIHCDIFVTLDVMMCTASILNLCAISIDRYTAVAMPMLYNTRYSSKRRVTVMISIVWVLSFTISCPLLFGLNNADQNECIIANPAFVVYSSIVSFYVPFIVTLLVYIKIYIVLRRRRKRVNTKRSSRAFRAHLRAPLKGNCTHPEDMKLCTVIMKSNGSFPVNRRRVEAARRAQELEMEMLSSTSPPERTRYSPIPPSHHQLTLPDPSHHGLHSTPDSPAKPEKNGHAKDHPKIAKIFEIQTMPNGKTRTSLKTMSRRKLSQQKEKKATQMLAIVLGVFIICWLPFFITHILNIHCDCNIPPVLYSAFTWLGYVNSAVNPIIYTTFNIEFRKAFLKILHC
Description: PDSP Primary Binding target: DRD2 - Compounds are tested at 10 uM concentration, plate are incubated at room temperature in the dark for 90 minutes. Reaction are stopped by vacuum filtration onto 0.3% polyethyleneimine soaked filter mats using Filtermate harvester. Scintilation cocktail is then melted onto microwave-dried filters on a hot plate and the radio activity is counted in Microbia counter.

[9] = target: Sodium-dependent dopamine transporter (Homo sapiens) (UniProt Q01959)
Sodium-dependent dopamine transporter (Homo sapiens), sequence (Q01959 whole entry): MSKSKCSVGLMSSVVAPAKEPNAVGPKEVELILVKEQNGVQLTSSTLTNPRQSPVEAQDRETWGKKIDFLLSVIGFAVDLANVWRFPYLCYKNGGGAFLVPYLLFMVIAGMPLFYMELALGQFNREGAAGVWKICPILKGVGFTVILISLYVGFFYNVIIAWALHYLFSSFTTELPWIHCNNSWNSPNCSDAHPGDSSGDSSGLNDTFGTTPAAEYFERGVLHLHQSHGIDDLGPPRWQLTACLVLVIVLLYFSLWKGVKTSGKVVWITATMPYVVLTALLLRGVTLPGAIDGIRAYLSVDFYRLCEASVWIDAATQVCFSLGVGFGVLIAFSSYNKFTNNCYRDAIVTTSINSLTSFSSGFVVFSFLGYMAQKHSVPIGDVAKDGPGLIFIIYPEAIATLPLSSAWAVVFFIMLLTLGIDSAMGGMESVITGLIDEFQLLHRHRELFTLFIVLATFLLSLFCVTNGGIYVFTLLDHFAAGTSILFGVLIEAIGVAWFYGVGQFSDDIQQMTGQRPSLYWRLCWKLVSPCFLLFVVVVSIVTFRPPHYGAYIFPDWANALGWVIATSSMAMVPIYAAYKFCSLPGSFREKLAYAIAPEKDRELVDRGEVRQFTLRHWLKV
Description: PDSP Primary Binding target: SLC6A3 - Compounds are tested at 10 uM concentration, plate are incubated at room temperature in the dark for 90 minutes. Reaction are stopped by vacuum filtration onto 0.3% polyethyleneimine soaked filter mats using Filtermate harvester. Scintilation cocktail is then melted onto microwave-dried filters on a hot plate and the radio activity is counted in Microbia counter.

[10] = target: 5-hydroxytryptamine receptor 1E (Homo sapiens) (UniProt P28566)
5-hydroxytryptamine receptor 1E (Homo sapiens), sequence (P28566 whole entry): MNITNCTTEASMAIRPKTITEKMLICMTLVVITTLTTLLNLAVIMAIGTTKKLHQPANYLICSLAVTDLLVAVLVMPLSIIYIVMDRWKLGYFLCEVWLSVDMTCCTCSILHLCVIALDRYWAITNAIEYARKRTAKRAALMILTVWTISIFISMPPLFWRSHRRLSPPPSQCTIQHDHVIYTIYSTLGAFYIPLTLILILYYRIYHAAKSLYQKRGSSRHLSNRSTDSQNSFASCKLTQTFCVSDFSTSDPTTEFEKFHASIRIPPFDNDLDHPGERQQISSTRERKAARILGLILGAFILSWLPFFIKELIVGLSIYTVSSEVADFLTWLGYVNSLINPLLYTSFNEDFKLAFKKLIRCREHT
Description: PDSP Primary Binding target: HTR1E - Compounds are tested at 10 uM concentration, plate are incubated at room temperature in the dark for 90 minutes. Reaction are stopped by vacuum filtration onto 0.3% polyethyleneimine soaked filter mats using Filtermate harvester. Scintilation cocktail is then melted onto microwave-dried filters on a hot plate and the radio activity is counted in Microbia counter.

[11] = target: Sodium-dependent serotonin transporter (Homo sapiens) (UniProt P31645)
Sodium-dependent serotonin transporter (Homo sapiens), sequence (P31645 whole entry, looked up): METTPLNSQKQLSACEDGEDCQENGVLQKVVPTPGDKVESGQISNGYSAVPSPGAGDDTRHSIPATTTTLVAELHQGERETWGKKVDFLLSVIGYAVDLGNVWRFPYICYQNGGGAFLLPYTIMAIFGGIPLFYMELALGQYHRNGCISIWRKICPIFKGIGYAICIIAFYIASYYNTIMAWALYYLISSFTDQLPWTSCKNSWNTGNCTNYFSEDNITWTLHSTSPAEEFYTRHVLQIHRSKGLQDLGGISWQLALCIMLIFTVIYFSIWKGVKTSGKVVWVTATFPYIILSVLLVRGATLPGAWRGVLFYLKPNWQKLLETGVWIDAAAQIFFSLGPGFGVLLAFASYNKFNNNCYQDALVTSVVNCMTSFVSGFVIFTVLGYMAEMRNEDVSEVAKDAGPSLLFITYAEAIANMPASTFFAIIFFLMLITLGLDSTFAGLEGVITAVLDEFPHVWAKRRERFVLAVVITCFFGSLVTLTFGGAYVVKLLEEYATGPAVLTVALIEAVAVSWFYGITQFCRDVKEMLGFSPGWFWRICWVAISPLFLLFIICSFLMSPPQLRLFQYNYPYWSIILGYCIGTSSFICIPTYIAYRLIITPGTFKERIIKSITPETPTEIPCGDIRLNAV
Description: PDSP Primary Binding target: SLC6A4 - Compounds are tested at 10 uM concentration, plate are incubated at room temperature in the dark for 90 minutes. Reaction are stopped by vacuum filtration onto 0.3% polyethyleneimine soaked filter mats using Filtermate harvester. Scintilation cocktail is then melted onto microwave-dried filters on a hot plate and the radio activity is counted in Microbia counter.

[12] = target: Translocator protein (Homo sapiens) (UniProt P30536)
Translocator protein (Homo sapiens), sequence (P30536 whole entry): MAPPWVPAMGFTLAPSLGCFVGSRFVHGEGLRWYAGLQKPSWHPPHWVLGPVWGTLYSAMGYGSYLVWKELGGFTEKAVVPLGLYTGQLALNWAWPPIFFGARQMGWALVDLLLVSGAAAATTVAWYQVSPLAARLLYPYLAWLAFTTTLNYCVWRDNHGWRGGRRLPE
Description: PDSP Primary Binding target: TSPO - Compounds are tested at 10 uM concentration, plate are incubated at room temperature in the dark for 90 minutes. Reaction are stopped by vacuum filtration onto 0.3% polyethyleneimine soaked filter mats using Filtermate harvester. Scintilation cocktail is then melted onto microwave-dried filters on a hot plate and the radio activity is counted in Microbia counter.

[13] = target: 5-hydroxytryptamine receptor 5A (Homo sapiens) (UniProt P47898)
5-hydroxytryptamine receptor 5A (Homo sapiens), sequence (P47898 whole entry): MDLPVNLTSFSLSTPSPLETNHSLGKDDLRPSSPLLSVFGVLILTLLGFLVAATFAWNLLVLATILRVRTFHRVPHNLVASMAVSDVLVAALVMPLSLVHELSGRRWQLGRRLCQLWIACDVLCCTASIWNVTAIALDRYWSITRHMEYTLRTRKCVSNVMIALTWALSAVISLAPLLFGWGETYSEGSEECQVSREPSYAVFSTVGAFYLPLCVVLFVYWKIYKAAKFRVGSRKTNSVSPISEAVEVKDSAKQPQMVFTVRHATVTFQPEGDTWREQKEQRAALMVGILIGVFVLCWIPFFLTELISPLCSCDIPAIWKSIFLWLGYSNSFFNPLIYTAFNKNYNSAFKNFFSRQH
Description: PDSP Primary Binding target: HTR5A - Compounds are tested at 10 uM concentration, plate are incubated at room temperature in the dark for 90 minutes. Reaction are stopped by vacuum filtration onto 0.3% polyethyleneimine soaked filter mats using Filtermate harvester. Scintilation cocktail is then melted onto microwave-dried filters on a hot plate and the radio activity is counted in Microbia counter.

[14] = target: T3, 5-hydroxytryptamine receptor 3A (Homo sapiens) (UniProt P46098)
T3 sequence (whole entry): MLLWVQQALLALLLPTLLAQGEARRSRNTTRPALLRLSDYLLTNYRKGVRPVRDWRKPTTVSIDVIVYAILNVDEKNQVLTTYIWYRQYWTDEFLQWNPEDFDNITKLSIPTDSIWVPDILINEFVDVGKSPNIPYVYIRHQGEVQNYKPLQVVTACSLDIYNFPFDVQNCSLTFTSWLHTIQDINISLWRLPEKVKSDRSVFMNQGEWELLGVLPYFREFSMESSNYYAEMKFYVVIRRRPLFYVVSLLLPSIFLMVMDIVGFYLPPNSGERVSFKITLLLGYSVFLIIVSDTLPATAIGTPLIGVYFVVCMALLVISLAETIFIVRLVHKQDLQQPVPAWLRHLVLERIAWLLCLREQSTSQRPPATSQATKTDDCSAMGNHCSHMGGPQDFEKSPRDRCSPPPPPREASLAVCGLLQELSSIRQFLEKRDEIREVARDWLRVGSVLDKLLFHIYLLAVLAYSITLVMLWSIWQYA
Description: PDSP Primary Binding target: HTR3A - Compounds are tested at 10 uM concentration, plate are incubated at room temperature in the dark for 90 minutes. Reaction are stopped by vacuum filtration onto 0.3% polyethyleneimine soaked filter mats using Filtermate harvester. Scintilation cocktail is then melted onto microwave-dried filters on a hot plate and the radio activity is counted in Microbia counter.

[15] = target: T4, Muscarinic acetylcholine receptor M4 (Homo sapiens) (UniProt P08173)
T4 sequence (whole entry): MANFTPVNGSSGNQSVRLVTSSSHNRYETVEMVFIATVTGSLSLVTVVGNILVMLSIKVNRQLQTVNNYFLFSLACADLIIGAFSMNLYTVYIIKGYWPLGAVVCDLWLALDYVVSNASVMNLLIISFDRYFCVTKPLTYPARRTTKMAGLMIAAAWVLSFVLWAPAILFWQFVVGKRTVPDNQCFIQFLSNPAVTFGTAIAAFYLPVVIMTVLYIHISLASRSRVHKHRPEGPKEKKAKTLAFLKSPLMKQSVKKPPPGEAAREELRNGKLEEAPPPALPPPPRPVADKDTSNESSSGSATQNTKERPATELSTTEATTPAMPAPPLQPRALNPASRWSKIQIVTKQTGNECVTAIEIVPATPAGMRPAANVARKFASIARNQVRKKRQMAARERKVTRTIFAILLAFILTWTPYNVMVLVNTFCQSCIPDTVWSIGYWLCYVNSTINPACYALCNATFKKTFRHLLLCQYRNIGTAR
Description: PDSP Primary Binding target: CHRM4 - Compounds are tested at 10 uM concentration, plate are incubated at room temperature in the dark for 90 minutes. Reaction are stopped by vacuum filtration onto 0.3% polyethyleneimine soaked filter mats using Filtermate harvester. Scintilation cocktail is then melted onto microwave-dried filters on a hot plate and the radio activity is counted in Microbia counter.

Compound | inhibition [1] | inhibition [2] | inhibition [3] | inhibition [4] | inhibition [5] | inhibition [6] | inhibition [7] | inhibition [8] | inhibition [9] | inhibition [10] | inhibition [11] | inhibition [12] | inhibition [13] | inhibition [14] | inhibition [15]
CC(C)NCC(O)c1ccc(N)c(C#N)c1 (stereo unspecified) | -5.25% | -2.82% | 4.01% | 5.77% | 22.7% | 34.1% | -5.56% | 1.95% | 29% | 32.7% | – | – | – | – | –
CCCCCNC(=N)N/N=C/c1c[nH]c2ccc(OC)cc12 | 77.7% | 47.1% | – | 23.9% | 96.6% | 31.1% | 62.5% | 67.3% | 69.1% | 20.5% | 57.7% | 47.4% | 97.6% | 70.2% | 0.53%
C[C@H](NC[C@H](O)CP(=O)(O)CC1CCCCC1)c1ccc(Cl)c(Cl)c1 | – | – | – | 26% | 49.6% | 9.98% | 6.11% | 10.4% | 62.1% | -8.21% | -2.56% | – | -8.92% | 6.3% | -3.27%
O=C(Cc1ccccc1)Nc1nc2ccc(Cl)cc2c2nc(-c3ccco3)nn12 | 3.62% | – | -6.09% | 13.8% | -4.19% | 29.1% | -7.34% | 1.93% | 27.1% | 7.51% | – | 18.7% | 15.2% | – | -5.46%
N#Cc1cccc(C(=O)Nc2cc(-c3ccccc3)nn2-c2ccccc2)c1 | -0.39% | – | – | 33% | 8.95% | -6.18% | -3.29% | -0.08% | 2.12% | 3.88% | 6.36% | – | 1.34% | – | -7.29%
CSc1ccc(C(=O)N[C@@H]2CCCC[C@@H]2NC(=O)CNC(=O)c2cc(C(F)(F)F)ccc2NC(=O)NC(C)C)cc1 | -2.26% | -8.17% | – | 28.4% | 22.2% | 70.6% | -0.4% | 45.7% | 28.2% | -4.02% | 13.7% | 46.9% | 5.1% | -5.92% | 6.91%
C/C(=N\NC(=O)[C@@H]1C(=O)NC[C@H]1c1ccccc1)c1cccc(Br)c1 | – | -9.99% | 11.2% | 20.4% | 21.3% | 58.5% | – | 7.24% | – | – | – | 46.9% | 18.8% | -4.26% | –
COc1ccc(Br)cc1S(=O)(=O)NC(=O)/C=C/c1ccccc1Cc1ccc2ccccc2c1 | – | -4.59% | -0.94% | 16% | 11% | 9.07% | -0.54% | 29.3% | – | 1.84% | – | 17.7% | – | 3.03% | -8.83%
Cc1cc(C(=O)N2Cc3cnn(C)c3Nc3ccccc32)ccc1CNC(=O)N1CCC[C@H]1C(=S)N1CCCN(C)CC1 | 13.1% | -3.37% | – | 46.9% | -7.44% | 24.4% | -2.71% | 5.64% | 19.8% | 4.73% | -2.9% | -9.04% | 35% | 25.9% | 63%
CC(C)(N)C(=O)N[C@H](COCc1ccccc1)C(=O)N1CCC2(CC1)CN(S(C)(=O)=O)c1ccccc12 | 10.4% | – | -2.84% | 5.6% | 16.4% | 24.6% | 11.4% | 22.7% | 39.5% | 14.1% | 23.6% | 9.25% | – | 17.7% | –
C[C@H](CO)Nc1nc(SCc2cccc(Cl)c2F)nc2[nH]c(=O)sc12 | – | -6.29% | – | 40% | 15.8% | 19% | 3.03% | -1.75% | 8.96% | -4.99% | 1.74% | – | 7.09% | – | -0.1%
Cc1cc(NC(=O)Nc2ccc(N(C)C)cc2)c2cc(F)cc(F)c2n1 | – | 29.1% | 35.9% | 16.8% | 96% | 6.41% | 14% | 52.2% | 22.8% | -4.12% | – | 8.35% | – | 7.73% | 2.31%
CCCCCCCCCCCCCCCCOC[C@H](COP(=O)([O-])OCC[N+](C)(C)C)OC(C)=O | – | – | – | 4.45% | 7.97% | – | 71.6% | 7.75% | – | 11.7% | 0.76% | – | 17.5% | – | -0.21%
C[C@H](Cc1cc2c(c(C(N)=O)c1)N(CCCO)CC2)NCCOc1ccccc1OCC(F)(F)F | 84.6% | -5.84% | -2.22% | 34.6% | 38.9% | 62.9% | 81.6% | 55.5% | 35.5% | -4.65% | – | 2.96% | 25.3% | 1.73% | -8.65%
CCc1cc2c(c(CC)n1)CCC(=O)N2Cc1ccc(-c2ccccc2-c2nnn[nH]2)cc1 | -6.38% | -4.14% | – | 26.1% | 24.9% | 8.58% | 25.9% | 37.9% | 8.77% | -6.23% | – | 45.9% | -4.8% | 8.33% | -4.36%
